The source made the active and inactive calls. No cut-off for these calls is given here.
Tests used:
Rattus norvegicus [1] = experiment: Toxicity in ip dosed F344 rat lateral thorax transplanted with dorsal skin of LEW rat assessed as concentration required for cause death; type: organism-based; settings: in vivo
LNCAP-AI = experiment: (§1) Antiproliferative activity human LNCAP-AI cells assessed as growth inhibition after 78 hrs by WST-1 assay; type: functional, cell-based
MCF7 = experiment: Antiproliferative activity against human MCF7 cells assessed as growth inhibition after 78 hrs by WST-1 assay; type: functional, cell-based
HCT-116 = experiment: Antiproliferative activity against human HCT116 cells assessed as growth inhibition after 78 hrs by WST-1 assay; type: functional, cell-based
[2] = as §1; type: functional, cell-based
[3] = Immunosuppressive activity in BALB/c/C57BL/6 mouse T cells assessed as inhibition of alloantigen-induced cell proliferation after 96 hrs by measuring [3H]thymidine uptake by mixed lymphocyte reaction assay; type: functional, cell-based; settings: BALB/c/C57BL/6, T-cell
Rattus norvegicus [4] = experiment: Immunosuppressive activity in F344 rat lateral thorax transplanted with dorsal skin of LEW rat assessed as increase of skin graft survival time at 3 mg/kg, ip; type: functional; settings: route intraperitoneal
spleen = experiment: Inhibition of serine palmitoyltransferase in mouse spleen cells; type: cell-based
SK-BR-3 = experiment: Antiproliferative activity against human SK-BR-3 cells assessed as growth inhibition after 78 hrs by WST-1 assay; type: functional, cell-based
MGC-803 = experiment: Antitumor activity against human MGC803 cells xenografted in nude mouse assessed as inhibition of tumor growth at 10 mg/kg for 20 days; type: functional, organism-based; design: dose 10 mg/kg
MDA-MB-231 = experiment: Antiproliferative activity against human MDA-MB-231 cells assessed as growth inhibition after 78 hrs by WST-1 assay; type: functional, cell-based
Rattus norvegicus [5] = experiment: Immunosuppressive activity in F344 rat lateral thorax transplanted with dorsal skin of LEW rat assessed as increase of skin graft survival time at 1 mg/kg, ip; type: functional; settings: route intraperitoneal
Mus musculus = experiment: Toxicity in human MGC803 cells xenografted nude mouse at 10 mg/kg for 20 days; type: organism-based, MGC-803; design: dose 10 mg/kg; settings: in vivo, 480 h
SW-620 = experiment: Antiproliferative activity against human SW620 cells assessed as growth inhibition after 78 hrs by WST-1 assay; type: functional, cell-based
Rattus norvegicus [6] = experiment: Immunosuppressive activity in rat assessed as increase of skin graft survival time at 0.1 mg/kg; type: functional

## CCCCCCCCCCCCCCCCCCC(N)(CO)CO
Rattus norvegicus [1]
  Activity: 10 mg/kg

## CCCCCCCCc1ccc(CC[C@](N)(/C=C/P(=O)(O)O)CO)cc1
LNCAP-AI
  growth inhibition (GI): inactive
MCF7
  growth inhibition (GI): inactive

## CCCCCCCCc1ccc(CCC(N)(CO)CO)cc1 [FINGOLIMOD]
HCT-116; HCT-116, 78 h
  IC50: 5 µM
[2]
  IC50: 5 µM
[3]
  IC50: 0.0061 µM
Rattus norvegicus [4]
  Time: 52 days
spleen
  inhibition: inactive
SK-BR-3; SK-BR-3, 78 h
  IC50: 5 µM
MGC-803
  growth inhibition (GI): Active
MCF7; MCF7, 78 h
  IC50: 5 µM
MDA-MB-231; MDA-MB-231, 78 h
  IC50: 5 µM
Rattus norvegicus [5]
  Time: 39.5 days
Mus musculus
  Activity: Toxic
SW-620; SW-620, 78 h
  IC50: 5 µM

## CCCCCCC(O)CCCCCCCCC[C@@H](O)[C@H](O)C(N)(CO)CO (stereo partly drawn)
Rattus norvegicus [4]
  Time: 11 days
Rattus norvegicus [5]
  Time: 9.2 days
Rattus norvegicus [1]
  Activity: 100 mg/kg

## CCCCCCC(=O)CCCCCC/C=C/C[C@@H](O)[C@H](O)[C@@](N)(CO)C(=O)O [MYRIOCIN]
[3]
  IC50: 0.003 µM
spleen
  inhibition: Active
Rattus norvegicus [6]
  Time: 2 days
Rattus norvegicus [1]
  Activity: 1 mg/kg

## C/C=C/C[C@@H](C)[C@@H](O)[C@H]1C(=O)N[C@@H](CC)C(=O)N(C)CC(=O)N(C)[C@@H](CC(C)C)C(=O)N[C@@H](C(C)C)C(=O)N(C)[C@@H](CC(C)C)C(=O)N[C@@H](C)C(=O)N[C@H](C)C(=O)N(C)[C@@H](CC(C)C)C(=O)N(C)[C@@H](CC(C)C)C(=O)N(C)[C@@H](C(C)C)C(=O)N1C [CYCLOSPORINE]
Rattus norvegicus [4]
  Time: 10.8 days
Rattus norvegicus [5]
  Time: 7.3 days

## CCCCCCCCCCCCCCC(N)(CO)CO
Rattus norvegicus [4]
  Time: 45.5 days
spleen
  inhibition: inactive
Rattus norvegicus [5]
  Time: 37.3 days
Rattus norvegicus [1]
  Activity: 10 mg/kg

## CCCCCCCCc1ccc(CC[C@](N)(CO)COP(=O)(O)O)cc1
HCT-116
  growth inhibition (GI): inactive
SK-BR-3
  growth inhibition (GI): inactive
MCF7
  growth inhibition (GI): inactive
MDA-MB-231
  growth inhibition (GI): inactive
SW-620
  growth inhibition (GI): inactive

From ChEMBL document CHEMBL1772937, “Fingolimod (FTY720): a recently approved multiple sclerosis drug based on a fungal secondary metabolite” (J Nat Prod, 2011)
